Laboratory results: patent publication US20150274719A1, “AMINO-SUBSTITUTED IMIDAZO[1,2-A]PYRIDINECARBOXAMIDES AND THEIR USE” (BAYER PHARMA AKTIENGESELLSCHAFT, priority 2012, published 2015)
Counter-ions that a name gives are not always drawn.

Target: T1, recombinant guanylate cyclase reporter cell line (Rattus norvegicus, UniProt P19686+P20595)
T1 construct: expressed in transfected cells; host or cells: recombinant reporter cell line
T1 sequence (P19686 1-690): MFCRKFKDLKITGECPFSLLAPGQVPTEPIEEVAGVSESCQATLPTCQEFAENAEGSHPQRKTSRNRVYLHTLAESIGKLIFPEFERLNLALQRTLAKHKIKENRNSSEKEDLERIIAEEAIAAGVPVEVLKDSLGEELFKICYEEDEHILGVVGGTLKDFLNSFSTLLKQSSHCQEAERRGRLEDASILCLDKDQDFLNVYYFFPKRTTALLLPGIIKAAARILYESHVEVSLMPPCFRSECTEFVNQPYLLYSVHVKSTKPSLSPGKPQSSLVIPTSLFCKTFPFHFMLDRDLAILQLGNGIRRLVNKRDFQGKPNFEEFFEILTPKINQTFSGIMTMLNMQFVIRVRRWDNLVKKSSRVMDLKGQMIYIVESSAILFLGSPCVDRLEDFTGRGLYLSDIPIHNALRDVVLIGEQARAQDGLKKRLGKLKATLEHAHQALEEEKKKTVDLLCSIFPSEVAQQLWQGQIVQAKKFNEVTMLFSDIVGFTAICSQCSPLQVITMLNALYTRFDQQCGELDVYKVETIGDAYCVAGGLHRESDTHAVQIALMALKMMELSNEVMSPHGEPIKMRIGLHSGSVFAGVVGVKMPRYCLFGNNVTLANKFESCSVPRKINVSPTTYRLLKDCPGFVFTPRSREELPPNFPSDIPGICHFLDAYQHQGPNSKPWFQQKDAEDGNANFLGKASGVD
T1 sequence (P20595 1-619): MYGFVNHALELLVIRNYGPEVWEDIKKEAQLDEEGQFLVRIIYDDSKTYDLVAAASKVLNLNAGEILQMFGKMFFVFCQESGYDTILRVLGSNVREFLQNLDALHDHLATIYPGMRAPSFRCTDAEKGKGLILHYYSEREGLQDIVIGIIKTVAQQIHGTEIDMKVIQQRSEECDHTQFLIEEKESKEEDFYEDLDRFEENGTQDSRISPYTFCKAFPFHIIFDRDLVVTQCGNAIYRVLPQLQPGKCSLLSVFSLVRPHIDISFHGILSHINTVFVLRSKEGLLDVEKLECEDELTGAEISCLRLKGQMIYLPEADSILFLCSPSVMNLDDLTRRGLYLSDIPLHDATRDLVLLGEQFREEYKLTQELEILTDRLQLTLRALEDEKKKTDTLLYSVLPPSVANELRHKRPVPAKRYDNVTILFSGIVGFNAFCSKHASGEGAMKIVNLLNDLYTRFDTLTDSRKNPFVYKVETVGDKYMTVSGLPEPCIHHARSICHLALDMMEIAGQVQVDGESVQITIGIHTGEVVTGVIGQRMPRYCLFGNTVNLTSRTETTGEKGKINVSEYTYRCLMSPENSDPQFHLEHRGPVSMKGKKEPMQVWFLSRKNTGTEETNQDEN
Assay: Action on recombinant guanylate cyclase reporter cell line
Format: cell-based
Details: in some cases mean values from individual determinations
Summary of the method: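 MEC values, meaning the lowest concentration producing a detectable response, were taken from a recombinant cyclase reporter cell assay. Where repeated, individual determinations were averaged.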

| SMILES | MEC (minimal effective concentration) |
| --- | --- |
| Cc1nc2c(OCc3c(F)cccc3F)cccn2c1C(=O)N[C@H]1CCNC1 [Example 61, 8-[(2,6-Difluorobenzyl)oxy]-2-methyl-N-[(3S)-pyrrolidin-3-yl]imidazo[1,2-a]pyridine-3-carboxamide] | 3.00 µM |
| Cc1nc2c(OCc3c(F)cccc3F)cccn2c1C(=O)NCC(N)C(C)C (single isomer, unassigned) [Example 228, ent-N-(2-Amino-3-methylbutyl)-8-[(2,6-difluorobenzyl)oxy]-2-methylimidazo[1,2-a]pyridine-3-carboxamide] | 1.00 µM |
| Cc1nc2c(OCc3c(F)cccc3F)cccn2c1C(=O)NCC(C)(N)CC(C)C (single isomer, unassigned) [Example 204, ent-N-(2-Amino-2,4-dimethylpentyl)-8-[(2,6-difluorobenzyl)oxy]-2-methylimidazo[1,2-a]pyridine-3-carboxamide] | 1.00 µM |
| Cc1cc(OCc2c(F)cccc2F)c2nc(C)c(C(=O)NC3(C)CC3(C)N)n2c1 (racemic) [Example 320, rac-N-(2-amino-1,2-dimethylcyclopropyl)-8-[(2,6-difluorobenzyl)oxy]-2,6-dimethylimidazo[1,2-a]pyridine-3-carboxamide (racemate)] | 0.30 µM |
| Cc1nc2c(OCc3c(F)cccc3F)cccn2c1C(=O)NC(CN)CC(F)(F)F (racemic) [Example 2, rac-N-(1-Amino-4,4,4-trifluorobutan-2-yl)-8-[(2,6-difluorobenzyl)oxy]-2-methylimidazo[1,2-a]-pyridine-3-carboxamide] | 0.65 µM |
| CCCC(C)(N)CNC(=O)c1c(C)nc2c(OCc3c(F)cccc3F)cc(OC)cn12 (single isomer, unassigned; enantiomer b) [Example 278, ent-N-(2-amino-2-methylpentyl)-8-[(2,6-difluorobenzyl)oxy]-6-methoxy-2-methylimidazo[1,2-a]pyridine-3-carboxamide (Enantiomer B)] | 0.3 µM |
| Cc1nc2c(OCc3c(F)cccc3F)cc(Cl)cn2c1C(=O)NCCCN [Example 37, N-(3-aminopropyl)-6-chloro-8-[(2,6-difluorobenzyl)oxy]-2-methylimidazo[1,2-a]pyridine-3-carboxamide] | 1.00 µM |
| Cc1nc2c(OCc3c(F)cccc3F)cc(Cl)cn2c1C(=O)NCCN(CC(F)F)C1CC1 [Example 150, 6-chloro-N-{2-[cyclopropyl(2,2-difluoroethyl)-amino]ethyl}-8-[(2,6-difluorobenzyl)oxy]-2-methylimidazo[1,2-a]pyridine-3-carboxamide] | 0.10 µM |
| Cc1nc2c(OCc3c(F)cccc3F)cccn2c1C(=O)NCC1(N)CCCC1 [Example 41, N-[(1-aminocyclopentyl)methyl]-8-[(2,6-difluorobenzyl)oxy]-2-methylimidazo[1,2-a]-pyridine-3-carboxamide] | 0.30 µM |
| Cc1cc(OCc2c(F)cccc2F)c2nc(C)c(C(=O)NCC(C)(C)NCCO)n2c1 [Example 349, 8-[(2,6-Difluorobenzyl)oxy]-N-{2-[(2-hydroxyethyl)amino]-2-methylpropyl}-2,6-dimethylimidazo[1,2-a]pyridine-3-carboxamide] | 1.00 µM |
| Cc1nc2c(OCc3c(F)cccc3F)cccn2c1C(=O)NCC(N)C(F)(F)C(F)F (single isomer, unassigned) [Example 231, ent-N-(2-Amino-3,3,4,4-tetrafluorobutyl)-8-[(2,6-difluorobenzyl)oxy]-2-methylimidazo[1,2-a]-pyridine-3-carboxamide] | 0.30 µM |
| Cc1cc(OCc2c(F)cccc2F)c2nc(C)c(C(=O)NC(CN)c3cccc(OC(F)(F)F)c3)n2c1 (racemic) [Example 380, rac-N-{2-amino-1-[3-(trifluoromethoxy)phenyl]ethyl}-8-[(2,6-difluorobenzyl)oxy]-2,6-dimethylimidazo[1,2-a]pyridine-3-carboxamide] | 1.00 µM |
| COCC(C)(N)CNC(=O)c1c(C)nc2c(OCc3c(F)cccc3F)cccn12 (single isomer, unassigned) [Example 215, ent-N-(2-Amino-3-methoxy-2-methylpropyl)-8-[(2,6-difluorobenzyl)oxy]-2-methylimidazo[1,2-a]-pyridine-3-carboxamide] | 1.00 µM |
| Cc1nc2c(OCc3c(F)cccc3F)cccn2c1C(=O)N[C@H]1CCCNC1 [Example 60, 8-[(2,6-difluorobenzyl)oxy]-2-methyl-N-[(3S)-piperidin-3-yl]imidazo[1,2-a]pyridine-3-carboxamide dihydrochloride] | 0.30 µM |
| Cc1cc(OC(C)c2c(F)cccc2F)c2nc(C)c(C(=O)NCC(C)(C)N)n2c1 (single isomer, unassigned; enantiomer b) [Example 256, ent-N-(2-Amino-2-methylpropyl)-8-[1-(2,6-difluorophenyl)ethoxy]-2,6-dimethylimidazo[1,2-a]-pyridine-3-carboxamide (Enantiomer B)] | 3.00 µM |
| Cc1nc2c(OCc3c(F)cccc3F)cccn2c1C(=O)NC(C)CN (single isomer, unassigned) [Example 20, ent-N-(1-Aminopropan-2-yl)-8-[(2,6-difluorobenzyl)oxy]-2-methylimidazo[1,2-a]pyridine-3-carboxamide] | 1.00 µM |
| Cc1nc2c(OCc3c(F)cccc3F)cccn2c1C(=O)NCC(C)N1CCOCC1 (single isomer, unassigned; ent-8) [Example 181, ent-8-[(2,6-Difluorobenzyl)oxy]-2-methyl-N-[2-(morpholin-4-yl)propyl]imidazo[1,2-a]pyridine-3-carboxamide] | 1.00 µM |
| Cc1cc(OCc2c(F)cccc2F)c2nc(C)c(C(=O)NCC(C)(N)C(F)(F)F)n2c1 (single isomer, unassigned) [Example 240, ent-N-(2-Amino-3,3,3-trifluoro-2-methylpropyl)-8-[(2,6-difluorobenzyl)oxy]-2,6-dimethylimidazo-[1,2-a]pyridine-3-carboxamide] | 0.30 µM |
| Cc1cc(OCc2c(F)cccc2F)c2nc(C)c(C(=O)NCC(C)(N)Cc3ccc(F)cc3)n2c1 (racemic) [Example 296, rac-N-[2-amino-3-(4-fluorophenyl)-2-methylpropyl]-8-[(2,6-difluorobenzyl)oxy]-2,6-dimethylimidazo[1,2-a]pyridine-3-carboxamide] | 0.10 µM |
| Cc1nc2c(OCc3c(F)cccc3F)cccn2c1C(=O)NCC(N)C(F)(F)F (single isomer, unassigned) [Example 208, ent-N-(2-Amino-3,3,3-trifluoropropyl)-8-[(2,6-difluorobenzyl)oxy]-2-methylimidazo[1,2-a]-pyridine-3-carboxamide] | 0.30 µM |
| Cc1nc2c(OCc3c(F)cccc3F)cccn2c1C(=O)NCCCN(C)C [Example 87, 8-[(2,6-difluorobenzyl)oxy]-N-[3-(dimethyl-amino)propyl]-2-methylimidazo[1,2-a]-pyridine-3-carboxamide] | 1.00 µM |
| CCN1C2CCCC1CC(NC(=O)c1c(C)nc3c(OCc4c(F)cccc4F)cccn13)C2 (centres unmarked) [Example 71, 8-[(2,6-Difluorobenzyl)oxy]-N-(9-ethyl-9-azabicyclo[3.3.1]non-3-yl)-2-methylimidazo[1,2-a]-pyridine-3-carboxamide] | 0.30 µM |
| Cc1cc(OCc2c(F)cccc2F)c2nc(C)c(C(=O)NC(CN)c3ccc(F)c(F)c3)n2c1 (stereo not drawn) [Example 51, ent-N-[2-Amino-1-(3,4-difluorophenyl)ethyl]-8-[(2,6-difluorobenzyl)oxy]-2,6-dimethylimidazo-[1,2-a]pyridine-3-carboxamide] | 0.20 µM |
